Reference: ChEMBL document CHEMBL1221253, “Fragment-based discovery and optimization of BACE1 inhibitors” (Bioorg Med Chem Lett, 2010)
pIC50: −log10 of the molar value.

Tests used:
Beta-secretase 1 [1] = target: T1, Beta-secretase 1 (Homo sapiens, UniProt P56817); assay: Binding affinity to BACE1 at 2 mM by surface plasmon resonance assay
Beta-secretase 1 [2] = target: T1, Beta-secretase 1; assay: Inhibition of BACE1 assessed as amyloid beta secretion by cell based assay
[3] = Genotoxicity in Salmonella Typhimurium by Ames test; assay type: toxicity; details: salmonella enterica subsp. enterica serovar typhimurium
Beta-secretase 2 = target: T2, Beta-secretase 2 (Homo sapiens, UniProt Q9Y5Z0); assay: Inhibition of human BACE2
T2 sequence (Q9Y5Z0 whole entry): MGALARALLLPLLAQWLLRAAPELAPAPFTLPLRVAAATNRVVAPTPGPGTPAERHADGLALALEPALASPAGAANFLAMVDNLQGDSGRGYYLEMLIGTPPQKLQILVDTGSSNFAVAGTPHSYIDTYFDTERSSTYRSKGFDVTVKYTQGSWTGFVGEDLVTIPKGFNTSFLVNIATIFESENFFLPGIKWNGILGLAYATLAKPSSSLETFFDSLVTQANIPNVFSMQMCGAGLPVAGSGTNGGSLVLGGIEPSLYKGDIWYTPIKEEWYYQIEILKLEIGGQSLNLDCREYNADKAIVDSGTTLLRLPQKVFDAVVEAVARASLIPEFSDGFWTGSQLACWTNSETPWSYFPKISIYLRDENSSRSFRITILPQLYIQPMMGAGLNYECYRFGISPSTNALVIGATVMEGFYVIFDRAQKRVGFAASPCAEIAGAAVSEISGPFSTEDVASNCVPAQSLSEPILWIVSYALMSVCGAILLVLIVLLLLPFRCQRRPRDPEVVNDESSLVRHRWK

[4] = Half life in rat liver microsomes; assay type: ADME, Microsome
[5] = target: Voltage-gated inwardly rectifying potassium channel KCNH2 (Homo sapiens, UniProt Q12809); assay: Inhibition of human ERG
Voltage-gated inwardly rectifying potassium channel KCNH2, sequence (Q12809 whole entry): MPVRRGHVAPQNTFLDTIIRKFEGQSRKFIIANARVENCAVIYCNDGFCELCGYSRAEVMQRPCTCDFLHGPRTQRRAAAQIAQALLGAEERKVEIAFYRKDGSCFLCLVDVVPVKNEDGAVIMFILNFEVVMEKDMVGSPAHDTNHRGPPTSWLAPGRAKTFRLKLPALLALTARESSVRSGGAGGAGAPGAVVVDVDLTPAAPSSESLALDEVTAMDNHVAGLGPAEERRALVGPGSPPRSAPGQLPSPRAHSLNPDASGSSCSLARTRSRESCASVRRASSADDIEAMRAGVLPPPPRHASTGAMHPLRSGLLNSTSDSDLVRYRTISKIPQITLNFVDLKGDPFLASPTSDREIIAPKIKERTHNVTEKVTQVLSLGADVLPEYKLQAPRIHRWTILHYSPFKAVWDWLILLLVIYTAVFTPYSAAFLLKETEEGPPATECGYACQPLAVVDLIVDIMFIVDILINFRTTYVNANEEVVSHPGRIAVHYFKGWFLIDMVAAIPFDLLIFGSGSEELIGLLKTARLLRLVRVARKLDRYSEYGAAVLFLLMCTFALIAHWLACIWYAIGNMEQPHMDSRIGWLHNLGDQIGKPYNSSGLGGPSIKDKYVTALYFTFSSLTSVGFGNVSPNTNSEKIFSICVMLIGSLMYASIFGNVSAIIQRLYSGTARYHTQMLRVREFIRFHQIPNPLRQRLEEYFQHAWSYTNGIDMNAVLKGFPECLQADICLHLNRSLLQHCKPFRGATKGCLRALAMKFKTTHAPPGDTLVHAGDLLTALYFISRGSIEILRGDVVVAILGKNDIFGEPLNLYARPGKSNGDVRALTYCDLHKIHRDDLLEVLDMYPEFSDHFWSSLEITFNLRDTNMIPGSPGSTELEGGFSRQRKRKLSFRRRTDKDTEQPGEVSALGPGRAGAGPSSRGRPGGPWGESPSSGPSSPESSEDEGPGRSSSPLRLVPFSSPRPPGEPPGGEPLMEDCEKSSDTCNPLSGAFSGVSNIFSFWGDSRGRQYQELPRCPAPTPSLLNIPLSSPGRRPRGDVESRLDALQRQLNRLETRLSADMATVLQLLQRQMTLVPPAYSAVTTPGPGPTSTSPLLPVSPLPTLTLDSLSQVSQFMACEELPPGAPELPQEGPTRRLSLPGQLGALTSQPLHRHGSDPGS

[6] = Half life in human liver microsomes; assay type: ADME, Microsome
[7] = Maximum drug flux by PAMPA; assay type: ADME
Cathepsin D = Cathepsin D (Homo sapiens, UniProt P07339); assay: Inhibition of cathepsin D
Cathepsin D, sequence (P07339 65-162 limits assumed): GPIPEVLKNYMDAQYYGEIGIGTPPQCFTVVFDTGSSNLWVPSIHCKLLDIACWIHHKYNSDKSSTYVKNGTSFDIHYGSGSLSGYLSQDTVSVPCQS
Cathepsin D, sequence (P07339 169-412 limits assumed): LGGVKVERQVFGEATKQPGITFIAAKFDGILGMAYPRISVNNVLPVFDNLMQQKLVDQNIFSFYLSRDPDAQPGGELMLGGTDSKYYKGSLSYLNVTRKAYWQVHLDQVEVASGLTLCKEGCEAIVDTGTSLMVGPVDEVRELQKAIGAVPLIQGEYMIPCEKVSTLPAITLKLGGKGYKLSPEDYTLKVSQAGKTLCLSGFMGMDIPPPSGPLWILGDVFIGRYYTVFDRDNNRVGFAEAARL

[8] = Genotoxicity in Salmonella Typhimurium by Ames test in presence of S9 liver microsomes; assay type: toxicity, Microsome; details: salmonella enterica subsp. enterica serovar typhimurium

T1 sequence (P56817 whole entry): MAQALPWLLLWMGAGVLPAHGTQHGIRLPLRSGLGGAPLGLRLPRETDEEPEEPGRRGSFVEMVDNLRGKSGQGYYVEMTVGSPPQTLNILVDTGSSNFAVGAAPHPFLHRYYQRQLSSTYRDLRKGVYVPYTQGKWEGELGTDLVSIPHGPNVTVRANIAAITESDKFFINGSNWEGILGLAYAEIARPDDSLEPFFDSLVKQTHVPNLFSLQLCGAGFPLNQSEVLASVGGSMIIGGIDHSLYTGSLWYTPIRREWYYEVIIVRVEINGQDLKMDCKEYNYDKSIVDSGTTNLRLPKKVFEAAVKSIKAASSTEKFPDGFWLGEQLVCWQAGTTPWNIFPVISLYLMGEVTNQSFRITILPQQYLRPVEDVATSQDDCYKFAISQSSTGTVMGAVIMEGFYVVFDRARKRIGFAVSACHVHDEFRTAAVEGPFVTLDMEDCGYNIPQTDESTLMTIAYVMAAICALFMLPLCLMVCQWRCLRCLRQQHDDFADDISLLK

| Structure (SMILES) | pIC50 (Beta-secretase 1 [2]) | also measured |
| --- | --- | --- |
| COn1c(-c2ccccc2)nc2ncccc21 | 3.03 | inhibition (Beta-secretase 1 [1]): 36% |
| CC[C@@H](CC(=O)N[C@@H](COC(C)(C)C)C(=O)OC)n1c(N)nc2cc(Cl)ccc21 | 3.77 |  |
| Nc1nc2cc(Cl)ccc2n1CCCC(=O)NCc1ccccn1 | 3.37 |  |
| CN1CCC(NC(=O)CCCn2c(N)nc3cc(Cl)ccc32)CC1 | 3.49 |  |
| Nc1nc2cc(Cl)ccc2n1CCCC(=O)NCc1ccccc1 | 2.85 |  |
| CC[C@@H](CC(=O)N[C@@H](COC(C)(C)C)C(=O)O)n1c(N)nc2cc(Cl)ccc21 | 4.06 |  |
| CC[C@@H](CC(=O)NCC1CCCCC1)n1c(N)nc2cc(Cl)ccc21 |  | Activity [3]: Non-toxic; pIC50 (Beta-secretase 2): 5.10; half-life [4]: 6.7 min; pIC50 [5]: 5.12; half-life [6]: 5.5 min; Activity [7]: 12%; pIC50 (Cathepsin D): 4.38; Activity [8]: Non-toxic |
| Clc1cccc(-c2cnc3ncccn23)c1 | 3.06 | inhibition (Beta-secretase 1 [1]): 29% |
| CC(C)C[C@@H](CC(=O)NC(C)C)n1c(N)nc2cc(Cl)ccc21 | 3.61 |  |
| CC[C@@H](CC(=O)NCc1ccccn1)n1c(N)nc2cc(Cl)ccc21 | < 3.00 |  |
| CN(CC1CCCCC1)C(=O)CCCn1c(N)nc2cc(Cl)ccc21 | 4.23 |  |
| CC[C@@H](CC(=O)NCc1ccccc1)n1c(N)nc2cc(Cl)ccc21 | 4.14 |  |
| CC[C@@H](CC(=O)NCCC(C)(C)C)n1c(N)nc2cc(Cl)ccc21 | 4.02 |  |
| CC[C@@H](CC(=O)NCCC1CCNC1)n1c(N)nc2cc(Cl)ccc21 (stereo not given in full) | 3.57 |  |
| CC(C)C[C@@H](CC(=O)NCc1ccccn1)n1c(N)nc2cc(Cl)ccc21 | 3.63 |  |
| Nc1nc2cc(Cl)ccc2n1CCCC(=O)NCc1cccc(F)c1 | 3.60 |  |
| CC[C@@H](CC(=O)NCCN1CCOCC1)n1c(N)nc2cc(Cl)ccc21 | 3.36 |  |
| CC(C)C[C@H](CC(=O)NC(C)C)n1c(N)nc2cc(Cl)ccc21 | < 3.00 |  |
| c1cnc2ncc(-c3ccncc3)n2c1 | 3.00 | inhibition (Beta-secretase 1 [1]): 20% |

| Structure (SMILES) | pIC50 (Beta-secretase 1 [2]) | also measured |
| --- | --- | --- |
| CC[C@@H](CC(=O)NCc1ccc(F)cc1)n1c(N)nc2cc(Cl)ccc21 | 3.58 |  |
| Nc1nc2cc(Cl)ccc2n1CCCC(=O)NCCC1CCNC1 (stereo not given) | 3.35 |  |
| Nc1nc2cc(Cl)ccc2n1CCCO | 3.11 | inhibition (Beta-secretase 1 [1]): 63% |
| Nc1nc2cc(Cl)ccc2n1CCCC(=O)NCCN1CCOCC1 | 3.08 |  |
| CC[C@@H](CC(=O)NCC1CC1)n1c(N)nc2cc(Cl)ccc21 | 3.61 |  |
| CC(C)NC(=O)CCCn1c(N)nc2cc(Cl)ccc21 | 3.71 |  |
| CC[C@@H](CC(=O)N[C@H](COC(C)(C)C)C(=O)OC)n1c(N)nc2cc(Cl)ccc21 | 4.12 |  |
| Nc1nc2cc(Cl)ccc2n1CCCC(=O)NCC1CC1 | 2.54 |  |
| CC[C@H](CC(=O)NCc1ccccc1)n1c(N)nc2cc(Cl)ccc21 | 3.29 |  |
| Nc1nc2ccc(Cl)cc2[nH]1 | 3.14 | inhibition (Beta-secretase 1 [1]): 34% |
| CC[C@@H](CC(=O)NCC1CCOCC1)n1c(N)nc2cc(Cl)ccc21 | < 3.00 |  |
| Nc1nc2cc(Cl)ccc2n1CCCC(=O)NCC1CCCCC1 | 4.08 |  |
| CN(Cc1cccc(F)c1)C(=O)CCCn1c(N)nc2cc(Cl)ccc21 | 3.71 |  |
| CC[C@@H](CC(=O)N(C)CC1CCCCC1)n1c(N)nc2cc(Cl)ccc21 | 3.43 |  |
| O=C1c2ccccc2C(=O)C1(O)O | 3.11 | inhibition (Beta-secretase 1 [1]): 27% |
| CC[C@@H](CC(=O)NCc1cccc(F)c1)n1c(N)nc2cc(Cl)ccc21 | 3.47 |  |
| CC[C@@H](CC(=O)NC(C)C)n1c(N)nc2cc(Cl)ccc21 | 3.16 |  |
| CC(C)C[C@@H](CC(=O)NCc1cccc(F)c1)n1c(N)nc2cc(Cl)ccc21 | 4.27 |  |
